Test results from US7928098B2, “Therapeutic and/or preventive agents for a sleep disorder” (Kyowa Hakko Kirin Co., Ltd., priority 2005, dated 2011).

How the values were obtained:
[1] = tested on: ddY male mice; assay: Effect on pentobarbital sodium-induced sleeping time (loss of righting reflex); assay type: in vivo; settings: test compound 10 mg/kg p.o. one hour before pentobarbital-Na 25 mg/kg s.c.
Procedure: The test was conducted to examine influence of Compound (I) of the present invention on pentobarbital sodium-induced sleeping time, according to the method of Iyakuhin no Kaihatsu, Vol. 9, Iyakuhin no Tansaku I, “antihypnotic”, p. 220-226, Hirokawa Shoten.
For the test, ddY male mice (19-21 g body weight; Japan SLC, Inc.) were used. All test compounds were used by suspending in distilled water (Otsuka Pharmaceutical Factory, Inc.) containing 0.5 volume/weight % methylcellulose (0.5% MC: Wako Pure Chemical Industries, Ltd.). A volume of 0.1 mL was administered per 10 g body weight of mice.
Groups of seven mice were used. To the control groups were orally administrated 0.5% MC, whereas a suspension of the test compound was orally administered to the test compound administered groups. One hour after the administration, pentobarbital sodium (pentobarbital-Na: Tokyo Chemical Industry Co., Ltd., 25 mg/kg) was administered subcutaneously. Mouse placed in a recumbent position, the mouse immediately returns to a proper upright position (this is known as righting reflex). However, the administration of pentobarbital sodium eliminated the righting reflex in the control groups. The time period in which the administration of […] eliminated the righting reflex was regarded as a sleeping time. By a measurement of time disappearing righting reflex immediately after the administration, the sleeping time was determined.

[2] = Table 5-1, groups of seven, controls 52.12 ± 5.20 (r5) and 35.56 ± 5.21 (r11)
[3] = Table 5-2, groups of seven, controls 40.00 ± 5.32 (r5) and 45.87 ± 4.17 (r12)

Row | SMILES | melting point | Sleeping time (min) Mean value ± standard deviation [1, 2] [min] | Sleeping time (min) Mean value ± standard deviation [1, 3] [min]
1 | O=C(Nc1nc(-c2ccco2)c(C(=O)C2CCCC2)s1)c1ccncc1 [Compound 336, N-[5-(Cyclopentylcarbonyl)-4-(2-furyl)thiazol-2-yl]pyridine-4-carboxamide] | 168 to 181 °C |  | 1.60 ± 1.56
2 | Cc1ncc(C(=O)Nc2nc(-c3ccco3)c(C(=O)c3ccccn3)s2)cn1 [Compound 136, N-[4-(2-Furyl)-5-(pyridin-2-ylcarbonyl)thiazol-2-yl]-2-methylpyrimidine-5-carboxamide] | 255 to 265 °C (dec.) | 1.89 ± 1.81 | 
3 | O=C(Nc1nc(-c2ccco2)c(C(=O)c2ccccn2)s1)c1ccncc1 [Compound 95, N-[4-(2-Furyl)-5-(pyridin-2-ylcarbonyl)thiazol-2-yl]pyridine-4-carboxamide] | 218 to 227 °C | 0.45 ± 0.45 | 
4 | N#Cc1ccc(C(=O)Nc2nc(-c3ccco3)c(C(=O)c3ccccn3)s2)cc1 [Compound 114, 4-Cyano-N-[4-(2-furyl)-5-(pyridin-2-ylcarbonyl)thiazol-2-yl]benzamide] | 232 to 235 °C |  | 0.63 ± 0.53
5 | O=C(Nc1nc(-c2ccco2)c(C(=O)c2ccccn2)s1)c1ccco1 [Compound 142, N-[4-(2-Furyl)-5-(pyridin-2-ylcarbonyl)thiazol-2-yl]furan-2-carboxamide] | 184 to 185 °C |  | 4.52 ± 4.41
6 | O=C(c1ccccn1)c1sc(NC(=O)C2CC2)nc1-c1ccco1 [Compound 99, N-[4-(2-Furyl)-5-(pyridin-2-ylcarbonyl)thiazol-2-yl]cyclopropanecarboxamide] | 191 to 192 °C |  | 0.05 ± 0.02
7 | Cc1ccc(C(=O)Nc2nc(-c3ccco3)c(C(=O)C3CCOCC3)s2)cn1 [Compound 409, N-[4-(2-Furyl)-5-(tetrahydropyran-4-ylcarbonyl)thiazol-2-yl]-2-methylpyridine-5-carboxamide] |  |  | 0.05 ± 0.05
8 | COC(=O)Nc1nc(-c2ccco2)c(C(=O)c2ccccn2)s1 [Compound 157, Methyl N-[4-(2-furyl)-5-(pyridin-2-ylcarbonyl)thiazol-2-yl]carbamate] |  |  | 9.39 ± 5.68
9 | O=C(CN1CCOCC1)Nc1nc(-c2ccco2)c(C(=O)C2CCOCC2)s1 [Compound 463, N-[4-(2-Furyl)-5-(tetrahydropyran-4-ylcarbonyl)thiazol-2-yl]-2-morpholinoacetamide] |  |  | 0.00 ± 0.00
10 | O=C(Nc1nc(-c2ccco2)c(-c2ccncc2)s1)c1ccc(Cn2ccnc2)cc1 [Compound 11, N-[4-(2-Furyl)-5-(4-pyridyl)thiazol-2-yl]-4-(imidazole-1-ylmethyl)benzamide] |  | 22.75 ± 6.63 | 

Second part, led by results:

Row | melting point | SMILES | Sleeping time (min) Mean value ± standard deviation [1, 2] [min] | Sleeping time (min) Mean value ± standard deviation [1, 3] [min]
11 | 196 to 198 °C | O=C(Nc1nc(-c2ccco2)c(C(=O)C2CCOCC2)s1)c1ccco1 [Compound 416, N-[4-(2-Furyl)-5-(tetrahydropyran-4-ylcarbonyl)thiazol-2-yl]furan-2-carboxamide] | 0.06 ± 0.06 | 
12 | 204 to 206 °C | O=C(Nc1nc(-c2ccco2)c(C(=O)C2CCOCC2)s1)c1ccc(Cl)cc1 [Compound 376, 4-Chloro-N-[4-(2-furyl)-5-(tetrahydropyran-4-ylcarbonyl)-thiazol-2-yl]benzamide] | 0.00 ± 0.00 | 
13 | 202 to 209 °C | O=C(Nc1nc(-c2ccco2)c(C(=O)C2CCOCC2)s1)c1ccncc1 [Compound 360, N-[4-(2-Furyl)-5-(tetrahydropyran-4-ylcarbonyl)thiazol-2-yl]pyridine-4-carboxamide] |  | 0.03 ± 0.02
14 | 182 to 183 °C | O=C(Nc1nc(-c2ccco2)c(C(=O)C2CCOCC2)s1)C1CC1 [Compound 361, N-[4-(2-Furyl)-5-(tetrahydropyran-4-ylcarbonyl)thiazol-2-yl]cyclopropanecarboxamide] | 1.65 ± 1.40 | 
15 | 131 to 132 °C | O=C(Nc1nc(-c2ccco2)c(C(=O)C2CCOCC2)s1)c1ccc(F)cc1 [Compound 373, 4-Fluoro-N-[4-(2-furyl)-5-(tetrahydropyran-4-ylcarbonyl)-thiazol-2-yl]benzamide] |  | 0.03 ± 0.02
16 | 198 to 200 °C | COc1cccc(C(=O)Nc2nc(-c3ccco3)c(C(=O)C3CCOCC3)s2)c1 [Compound 367, N-[4-(2-Furyl)-5-(tetrahydropyran-4-ylcarbonyl)thiazol-2-yl]-3-methoxybenzamide] | 0.10 ± 0.10 | 
17 | 190 to 192 °C | Cc1ccc(C(=O)Nc2nc(-c3ccco3)c(C(=O)C3CCOCC3)s2)cc1 [Compound 365, N-[4-(2-Furyl)-5-(tetrahydropyran-4-ylcarbonyl)thiazol-2-yl]-4-methylbenzamide] |  | 0.05 ± 0.05
18 | 233 to 235 °C | O=C(Nc1nc(-c2ccco2)c(C(=O)C2CCOCC2)s1)c1ccc(Cl)nc1 [Compound 407, 2-Chloro-N-[4-(2-furyl)-5-(tetrahydropyran-4-ylcarbonyl)-thiazol-2-yl]pyridine-5-carboxamide] | 0.00 ± 0.00 | 
19 | 222 to 223 °C | N#Cc1ccc(C(=O)Nc2nc(-c3ccco3)c(C(=O)C3CCOCC3)s2)o1 [Compound 420, 5-Cyano-N-[4-(2-furyl)-5-(tetrahydropyran-4-ylcarbonyl)-thiazol-2-yl]furan-2-carboxamide] | 0.00 ± 0.00 | 
